Experimental data taken from US6603023B2 (priority 1996, dated 2003).
pIC50: −log10 of the molar value. Several values for one entry are separate records, joined by “and”; a condition that tells them apart may be missing. Equal values may be shown once. Where a name gives a salt, the structure may show the parent alone. Read-outs that look alike come from different tables or passages of the source.

What was measured:
[1] = system: CCRF-CEM human T-cell acute lymphoblastic leukemia cell line; assay: XTT cytotoxicity (cell growth inhibition), CCRF-CEM; settings: Homo sapiens, CCRF-CEM, 72 h, Table 1A; XTT
Summary of the method: (§1)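 Growth was read by XTT/PMS reduction over 4 h at 37 °C after 72 h of compound treatment, with absorbance at 450 nm and 630 nm. CCRF-CEM, P388 and their resistant sublines, grown continuously with their selecting drugs, were cultured in duplicate at 5×10^4 cells/mL. The medium was RPMI-1640 with 10% FBS.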

CCRF-CEM/Taxol® = assay: cells; assay type: cell-based, human; settings: Homo sapiens, CCRF-CEM, 72 h
Summary of the method: as §1

CCRF-CEM/VBL100 = assay: cells; assay type: cell-based, human; settings: Homo sapiens, CCRF-CEM, 72 h, Table 1A; XTT
Summary of the method: as §1

CCRF-CEM/VM1 = assay: cells; assay type: cell-based, human; settings: Homo sapiens, CCRF-CEM, 72 h, Table 1A; XTT
Summary of the method: as §1

[2] = system: DC-3F hamster lung fibroblast cell line; assay: SRB cytotoxicity, DC-3F; assay type: cell-based; settings: Mesocricetus auratus, DC3F, 72 h, Table 1C; SRB
Summary of the method: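 Cellular protein content measured with sulforhodamine B after trichloroacetic acid fixation, read at 570 nm. Each duplicate run used six to seven concentrations, analysed by the median-effect method. Cells were cultured at 37 °C, 5% CO2 in RPMI 1640-10% FBS, and drug-resistant lines were maintained with their selecting agent.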

DC-3F/ADX = assay: cells; assay type: cell-based, hamster; settings: DC3F/ADX, 72 h, Table 1C; SRB
Summary of the method: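 Cell protein content measured by sulforhodamine B staining after trichloroacetic acid fixation, read at 570 nm; duplicate runs of six to seven concentrations fitted by median-effect analysis. Lines are actinomycin D-resistant DC-3F hamster lung sublines (ADII, ADX), kept under selecting drug in RPMI 1640-10% FBS.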

murine leukemic P388/0 = assay: XTT cytotoxicity, P388/0; assay type: cell-based; settings: Mus musculus, P388, 72 h
Experimental: (§2) The DC-3F hamster lung fibroblast cell line and its actinomycin D-selected sublines (DC-3F/ADII and DC-3F/ADX) were obtained from the Memorial Sloan-Kettering Cancer Center (MSKCC).
(§3) The drug-resistant cell lines were continuously cultured in the presence of the selecting agent, AD, DX, VBL or VM to maintain the drug resistant phenotypes. […] All cells were cultured in RPMI 1640-10% FBS at 37° C. 5% CO2 (see below).
(§4) The cells were cultured at an initial density of 5×10^4 cells/mL. They were maintained in a 5% CO2-humidified atmosphere at 37° C. in RPMI-1640 medium (GIBCO-BRL, Gaithersburg, Md.) containing penicillin (100 U/mL), streptomycin ([…]) (GIBCO-BRL) and 10% heat inactivate fetal bovine serum. Culture for cell suspension (such as for CCRF-CEM, P388 and sublines), were performed by the XTT-microculture tetrazonium method (Scudiero, D. A. et al., Cancer Res. 1988, 48, 4827-4833) in duplicate in 96-well microtiter plates.
(§5) 2′,3′-Bis(methoxy-4-nitro-5-sufophenyl)-5-[(phenylamino)carbonyl]2H-tetrazolium hyudroxide (XTT) was prepared at 1 mg/mL in prewarmed (37° C.) medium without serum. Phenazine methosulfate (PMS) and fresh XTT were mixed together to obtain 0.025 mM PMS-XTT solution (25 μL of the stock 5 mM PMS was added per 5 mL of 1 mg/mL XTT). Following a 72 h incubation, 50 μL of the assay aliquots were added to each well of the cell culture. After incubation at 37° C. for 4 h, absorbance at 450 nm and 630 nm was measured with a microplate reader (EL340, Bio-Tek Instruments, Inc., Winooski, Vt.).

P388/Adr = assay: cells; assay type: cell-based, murine; settings: Mus musculus, P388/ADR, 72 h
Experimental: as §3, §4, §5

[3] = system: human neuroblastoma SK-N-As; assay: SRB cytotoxicity, SK-N-As; assay type: cell-based; settings: Homo sapiens, SK-N-AS, 72 h
Experimental: as §2, §3
(§6) The cytotoxicity of the drug toward the monolayer cell cultures (such as DC-3F, MCF-7, SK-N-As and sublines) was determined in 96-well microtiter plates by the SRB method as described by Skehan and co-workers (Skehan, P., et al., J. Natl. Cancer Inst. 1990, 82, 1107-1112) for measuring the cellular protein content. Cultures were fixed with trichloroacetic acid and then stained for 30 min with 0.4% suforhodamine B dissolved in 1% acetic acid. Unbound dye was removed by acetic acid washes, and the protein-bound dye was extracted with an unbuffered Tris base (tris(hydroxy-methyl)aminomethane) for determination of absorbance at 570 nm in a 96-well microtiter plate reader. The experiments were carried out in duplicate. Each run entailed six to seven concentrations of the tested drugs. Data were analyzed with the median-effect plot (Chou, T.-C. & Talalay, P. T. (1984) Adv. Enzyme Regul. 22, 27-55) using a previously described computer program (Chou, J., & Chou T.-C. 1987, Dose-effect analysis with microcomputers: Quantitation of ED50, synergism, antagonism, low-dose risk, reception-ligand binding and enzyme kinetics, IBM-PC software and manual, Biosoft, Cambridge, U.K.).

SK-N-FI = assay: cells; assay type: cell-based, human; settings: Homo sapiens, SK-N-FI, 72 h
Experimental: as §3, §6

MCF-7 = assay: SRB cytotoxicity, MCF-7; assay type: cell-based, human; settings: Homo sapiens, MCF7, 72 h
Experimental: as §6

MCF-7/Adr = assay: cells; assay type: cell-based, human; settings: Homo sapiens, NCI/ADR-RES, 72 h
Experimental: Cultures were fixed with trichloroacetic acid and then stained for 30 min with 0.4% suforhodamine B dissolved in 1% acetic acid. Unbound dye was removed by acetic acid washes, and the protein-bound dye was extracted with an unbuffered Tris base (tris(hydroxy-methyl)aminomethane) for determination of absorbance at 570 nm in a 96-well microtiter plate reader. The experiments were carried out in duplicate. Each run entailed six to seven concentrations of the tested drugs.

[4] = system: human mammary carcinoma MX-1 xenograft
Experimental: (§7) DMSO was used as a vehicle for epothilones. Each mouse received ≦40 μL DMSO in all experiments.
(§8) Athymic nude mice (nu/nu) were used for MX-1 and MCF-7/Adr human mammary carcinoma xenografts. Mice were obtained from Taconic Laboratory Animals and Service (Germantown, N.Y.: outbred, Swiss background).

in vivo = settings: male, athymic nude (nu/nu), outbred, Swiss background, mouse, in vivo, ip
Experimental: as §7, §8

[5] = system: MDR human mammary adenocarcinoma MCF-7/Adr xenograft; assay: in vivo
Experimental: as §7, §8

[6] = male, athymic nude (nu/nu), outbred, Swiss background, mouse, in vivo
[7] = high doses: Taxol 12, Adriamycin 3, Camptothecin 3.0 mg/kg i.p. day 8,10,12,14,16

Structure (SMILES): COc1cccc2c1C(=O)c1c(O)c3c(c(O)c1C2=O)C[C@@](O)(C(=O)CO)C[C@@H]3O[C@H]1C[C@H](N)[C@H](O)[C@H](C)O1 [Adriamycin, doxorubicin or adriamycin HCl]
- pIC50 [1]: 7.44
- pIC50 (CCRF-CEM/Taxol®): 7.09
- pIC50 (CCRF-CEM/VBL100): 5.76
- pIC50 (CCRF-CEM/VM1): 6.89
- pIC50 [2]: 7.74
- pIC50 (DC-3F/ADX): 5.65
- pIC50 (murine leukemic P388/0): 8.26
- pIC50 (P388/Adr): 5.58
- pIC50 [3]: 7.11
- pIC50 (SK-N-FI): 5.85
- pIC50 (MCF-7): 7.24
- pIC50 (MCF-7/Adr): 6.67
- Tumor Disappearance ([4]; 2 mg/kg i.p. d8,10,12,14,16): 1/10
- Tumor Disappearance ([4]; 3 mg/kg i.p. d8,10,12,14,16): 4/6
- tumor volume reduction ([4]; adriamycin 2 mg/kg i.p. Q2Dx5 from day 8): 28%
- lethality [4, 6]: 4/6
- lethality (mice died of toxicity) [4, 6]: 1/10
- LD50 (in vivo): 3 mg/kg
- tumor growth suppression ([5]; DX 2 mg/kg): slight growth suppression
- Average Tumor Volume (T/C), Day 11 [5, 7]: 0.66 T/C
- Average Tumor Volume (T/C), Day 13 [5, 7]: 0.83 T/C
- Average Tumor Volume (T/C), Day 15 [5, 7]: 0.57 T/C
- Average Tumor Volume (T/C), Day 17 [5, 7]: 0.53 T/C
- lethality [5, 6]: 3/6
- tumor size reduction ([5]; mouse, in vivo): 22%
- Average Tumor Size (T/C) ([5]; mouse, in vivo, HCl): 0.78 and 0.70 and 0.68 and 0.84 and 0.53 and 0.66 and 0.83 and 0.57
